pIC50: −log10 of the molar value.
Target: T1, human SLC6A19 (Homo sapiens, UniProt Q695T7)
T1 construct: expressed in transfected cells
T1 sequence (Q695T7 1-634): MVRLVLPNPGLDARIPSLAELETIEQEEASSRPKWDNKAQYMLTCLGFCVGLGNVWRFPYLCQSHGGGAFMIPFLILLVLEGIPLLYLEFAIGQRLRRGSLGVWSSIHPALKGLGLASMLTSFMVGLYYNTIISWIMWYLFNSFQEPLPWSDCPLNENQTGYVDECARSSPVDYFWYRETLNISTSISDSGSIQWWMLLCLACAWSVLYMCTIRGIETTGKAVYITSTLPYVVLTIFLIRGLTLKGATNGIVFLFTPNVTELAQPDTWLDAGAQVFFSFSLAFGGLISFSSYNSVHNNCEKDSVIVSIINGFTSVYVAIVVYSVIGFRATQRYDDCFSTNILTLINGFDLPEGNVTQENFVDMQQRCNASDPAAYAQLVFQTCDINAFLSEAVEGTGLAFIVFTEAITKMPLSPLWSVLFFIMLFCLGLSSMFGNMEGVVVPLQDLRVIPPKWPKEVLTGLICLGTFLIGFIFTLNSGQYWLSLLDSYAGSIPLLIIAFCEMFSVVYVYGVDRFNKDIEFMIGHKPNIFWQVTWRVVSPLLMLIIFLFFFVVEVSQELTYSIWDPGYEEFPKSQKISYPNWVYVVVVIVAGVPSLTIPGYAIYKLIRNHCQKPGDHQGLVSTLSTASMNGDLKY
T1 sequence (Q9HBJ8 15-222 partner): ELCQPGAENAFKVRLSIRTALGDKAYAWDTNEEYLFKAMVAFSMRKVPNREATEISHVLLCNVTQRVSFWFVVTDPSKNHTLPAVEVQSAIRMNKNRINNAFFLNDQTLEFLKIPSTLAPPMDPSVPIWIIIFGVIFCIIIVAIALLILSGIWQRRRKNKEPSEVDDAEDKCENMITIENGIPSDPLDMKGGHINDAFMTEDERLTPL
Assay: Example B2: 13C6,15N-isoleucine uptake, RapidFire mass spectrometry, in CHO cells with doxycycline-inducible expression of human SLC6A19 and TMEM27
Assay type: cell-based
Conditions: read-out: SLC6A19_RapidFire Uptake Assay IC50
Procedure, shortened: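 Labelled isoleucine (13C6,15N; 2 mM added) was given 20 min at 37 °C, following a 20-min compound pre-treatment (10-point 2-fold series, duplicate). Cells were doxycycline-induced CHO co-expressing human SLC6A19 and TMEM27. Intracellular label was quantified by RapidFire-MS peak areas against a 13C-leucine standard.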

Question: With `Cc1cc(N2CCC[C@@H](N(C)C(=O)NCc3cc4cc(Cl)ccc4[nH]3)C2)no1` [Compound 177, (R)-3-((5-chloro-1H-indol-2-yl)methyl)-1-methyl-1-(1-(5-methylisoxazol-3-yl)piperidin-3-yl)urea] as the molecule, how does the pIC50 read?
Answer: 6.91

Question: How did the pIC50 turn out when `CN(C(=O)NCc1cc2cc(Cl)ccc2[nH]1)[C@@H]1CCCN(C(=O)C2(C)COC2)C1` [Compound 126, (R)-3-((5-chloro-1H-indol-2-yl)methyl)-1-methyl-1-(1-(3-methyloxetane-3-carbonyl)piperidin-3-yl)urea] was run?
Answer: 5.84

Question: `Cc1ncoc1C(=O)N1CCC[C@@H](N(C)C(=O)NCc2cc3cc(Cl)ccc3[nH]2)C1` [Compound 27, (R)-3-((5-chloro-1H-indol-2-yl)methyl)-1-methyl-1-(1-(4-methyloxazole-5-carbonyl)piperidin-3-yl)urea] was tested. Which pIC50 did it give?
Answer: 6.09

Question: How did the pIC50 turn out when `CN(C(=O)NCc1cc2cc(Cl)ccc2[nH]1)[C@@H]1CCCN(C(=O)C2CCC2F)C1` (stereo partly drawn) [Compound 125, 3-((5-chloro-1H-indol-2-yl)methyl)-1-((3R)-1-(2-fluorocyclobutane-1-carbonyl)piperidin-3-yl)-1-methylurea] was run?
Answer: 6.59

Question: With `CC(=O)N1CCC[C@@H](N(C)C(=O)NCc2cc3cc(Cl)c(C)cc3[nH]2)C1` [Compound 226, (R)-1-(1-acetylpiperidin-3-yl)-3-((5-chloro-6-methyl-1H-indol-2-yl)methyl)-1-methylurea] as the molecule, how does the pIC50 read?
Answer: 6.68

Question: With `CN(C(=O)NCc1cc2cc(Cl)ccc2[nH]1)[C@@H]1CCCN(C(=O)[C@H]2C[C@@H]2F)C1` [Compound 14, 3-((5-chloro-1H-indol-2-yl)methyl)-1-((R)-1-((1R,2S)-2-fluorocyclopropane-1-carbonyl)piperidin-3-yl)-1-methylurea] as the molecule, how does the pIC50 read?
Answer: 6.33

Question: With `CN(C(=O)NCc1cc2cc(Cl)ccc2[nH]1)[C@@H]1CCCN(C(=O)Cn2cccnc2=O)C1` [Compound 66, (R)-3-((5-chloro-1H-indol-2-yl)methyl)-1-methyl-1-(1-(2-(2-oxopyrimidin-1(2H)-yl)acetyl)piperidin-3-yl)urea] as the molecule, how does the pIC50 read?
Answer: 5.37

Question: With `CN(C(=O)NCc1cc2cc(Cl)ccc2[nH]1)[C@@H]1CCCN(C(=O)c2ncc[nH]c2=O)C1` [Compound 37, (R)-3-((5-chloro-1H-indol-2-yl)methyl)-1-methyl-1-(1-(3-oxo-3,4-dihydropyrazine-2-carbonyl)piperidin-3-yl)urea] as the molecule, how does the pIC50 read?
Answer: 4.71

Question: How did the pIC50 turn out when `CN(C(=O)NCc1cc2cc(Cl)ccc2[nH]1)[C@@H]1CCCN(C(=O)Cn2ccccc2=O)C1` [Compound 81, (R)-3-((5-chloro-1H-indol-2-yl)methyl)-1-methyl-1-(1-(2-(2-oxopyridin-1(2H)-yl)acetyl)piperidin-3-yl)urea] was run?
Answer: 5.85

Question: How did the pIC50 turn out when `CN(C(=O)NCc1cc2cc(Cl)ccc2[nH]1)[C@@H]1CCCN(C(=O)c2nccs2)C1` [Compound 9, (R)-3-((5-chloro-1H-indol-2-yl)methyl)-1-methyl-1-(1-(thiazole-2-carbonyl)piperidin-3-yl)urea] was run?
Answer: 5.27

Question: `CN(C(=O)NCc1cc2cc(Cl)ccc2[nH]1)[C@@H]1CCCN(C(=O)c2ccncc2)C1` [Compound 34, (R)-3-((5-chloro-1H-indol-2-yl)methyl)-1-(1-isonicotinoylpiperidin-3-yl)-1-methylurea] was tested. Which pIC50 did it give?
Answer: 5.85

Question: `CC(O)C(=O)N1CCC[C@@H](N(C)C(=O)NCc2cc3cc(Cl)ccc3[nH]2)C1` (stereo partly drawn) [Compound 12, 3-((5-chloro-1H-indol-2-yl)methyl)-1-((3R)-1-(2-hydroxypropanoyl)piperidin-3-yl)-1-methylurea] was tested. Which pIC50 did it give?
Answer: 6.45

Question: `CC(=O)N1CCC[C@@H](N(C)C(=O)NCc2[nH]c3ccc(Cl)cc3c2Cl)C1` [Compound 176, (R)-1-(1-acetylpiperidin-3-yl)-3-((3,5-dichloro-1H-indol-2-yl)methyl)-1-methylurea] was tested. Which pIC50 did it give?
Answer: 7.51

Question: How did the pIC50 turn out when `CN(C(=O)NCc1cc2cc(Cl)ccc2[nH]1)[C@@H]1CCCN(C(=O)c2onc3ccccc23)C1` [Compound 69, (R)-1-(1-(benzo[c]isoxazole-3-carbonyl)piperidin-3-yl)-3-((5-chloro-1H-indol-2-yl)methyl)-1-methylurea] was run?
Answer: < 5.55

Question: With `CCN(C(=O)NCc1cc2cc(Cl)c(OC)cc2[nH]1)[C@@H]1CCCN(C(C)=O)C1` [Compound 167, (R)-1-(1-acetylpiperidin-3-yl)-3-((5-chloro-6-methoxy-1H-indol-2-yl)methyl)-1-ethylurea] as the molecule, how does the pIC50 read?
Answer: 6.99

Question: How did the pIC50 turn out when `Cc1ccn(CC(=O)N2CCC[C@@H](N(C)C(=O)NCc3cc4cc(Cl)ccc4[nH]3)C2)n1` [Compound 85, (R)-3-((5-chloro-1H-indol-2-yl)methyl)-1-methyl-1-(1-(2-(3-methyl-1H-pyrazol-1-yl)acetyl)piperidin-3-yl)urea] was run?
Answer: 6.43

Question: `CC(=O)N1CC(C(=O)N2CCC[C@@H](N(C)C(=O)NCc3cc4cc(Cl)ccc4[nH]3)C2)C1` [Compound 96, (R)-1-(1-(1-acetylazetidine-3-carbonyl)piperidin-3-yl)-3-((5-chloro-1H-indol-2-yl)methyl)-1-methylurea] was tested. Which pIC50 did it give?
Answer: 6.03

Question: With `CN(C(=O)NCc1cc2cc(Cl)ccc2[nH]1)[C@@H]1CCCN(C(=O)c2ncccn2)C1` [Compound 22, (R)-3-((5-chloro-1H-indol-2-yl)methyl)-1-methyl-1-(1-(pyrimidine-2-carbonyl)piperidin-3-yl)urea] as the molecule, how does the pIC50 read?
Answer: 5.36

Question: `CN(C(=O)NCc1cc2cc(Cl)ccc2[nH]1)[C@@H]1CCCN(C(=O)C(C)(C)O)C1` [Compound 180, (R)-3-((5-chloro-1H-indol-2-yl)methyl)-1-(1-(2-hydroxy-2-methylpropanoyl)piperidin-3-yl)-1-methylurea] was tested. Which pIC50 did it give?
Answer: 5.55

Question: `CN(C(=O)NCc1cc2cc(Cl)ccc2[nH]1)[C@@H]1CCCN(C(=O)c2ccn(C)n2)C1` [Compound 54, (R)-3-((5-chloro-1H-indol-2-yl)methyl)-1-methyl-1-(1-(1-methyl-1H-pyrazole-3-carbonyl)piperidin-3-yl)urea] was tested. Which pIC50 did it give?
Answer: 6.40

Question: How did the pIC50 turn out when `CNc1cc(Cl)cc2cc(CNC(=O)N(C)[C@@H]3CCCN(C(C)=O)C3)[nH]c12` [Compound 178, (R)-1-(1-acetylpiperidin-3-yl)-3-((5-chloro-7-(methylamino)-1H-indol-2-yl)methyl)-1-methylurea] was run?
Answer: 5.80

Question: `CN(C(=O)NCc1cc2cc(Cl)ccc2[nH]1)[C@@H]1CCCN(C(=O)c2ccno2)C1` [Compound 6, (R)-3-((5-chloro-1H-indol-2-yl)methyl)-1-(1-(isoxazole-5-carbonyl)piperidin-3-yl)-1-methylurea] was tested. Which pIC50 did it give?
Answer: 6.70

Question: `CN(C(=O)NCc1cc2cc(Cl)ccc2[nH]1)[C@@H]1CCCN(C(=O)[C@H]2CC[C@H](O)CC2)C1` [Compound 108] was tested. Which pIC50 did it give?
Answer: 5.64

Question: With `CN(C(=O)NCc1cc2cc(Cl)ccc2[nH]1)[C@@H]1CCCN(C(=O)CS(C)(=O)=O)C1` [Compound 32, (R)-3-((5-chloro-1H-indol-2-yl)methyl)-1-methyl-1-(1-(2-(methylsulfonyl)acetyl)piperidin-3-yl)urea] as the molecule, how does the pIC50 read?
Answer: 5.06

Question: With `CCOc1cc2[nH]c(CNC(=O)N(C)[C@@H]3CCCN(C(C)=O)C3)cc2cc1Cl` [Compound 155, (R)-1-(1-acetylpiperidin-3-yl)-3-((5-chloro-6-ethoxy-1H-indol-2-yl)methyl)-1-methylurea] as the molecule, how does the pIC50 read?
Answer: 6.27

Question: `CN(C(=O)NCc1cc2cc(Cl)ccc2[nH]1)[C@@H]1CCCN(C(=O)CC(C)(C)O)C1` [Compound 80, (R)-3-((5-chloro-1H-indol-2-yl)methyl)-1-(1-(3-hydroxy-3-methylbutanoyl)piperidin-3-yl)-1-methylurea] was tested. Which pIC50 did it give?
Answer: 5.25

Question: With `CN(C(=O)NCc1cc2cc(Cl)ccc2[nH]1)[C@@H]1CCCN(C(=O)C2(C)CC2)C1` [Compound 45, (R)-3-((5-chloro-1H-indol-2-yl)methyl)-1-methyl-1-(1-(1-methylcyclopropane-1-carbonyl)piperidin-3-yl)urea] as the molecule, how does the pIC50 read?
Answer: 5.81

Question: With `CN(C(=O)NCc1cc2cc(Cl)ccc2[nH]1)[C@@H]1CCCN(C(=O)C2(O)CCC2)C1` [Compound 128, (R)-3-((5-chloro-1H-indol-2-yl)methyl)-1-(1-(1-hydroxycyclobutane-1-carbonyl)piperidin-3-yl)-1-methylurea] as the molecule, how does the pIC50 read?
Answer: 5.74

Question: With `Cc1cc(C(=O)N2CCC[C@@H](N(C)C(=O)NCc3cc4cc(Cl)ccc4[nH]3)C2)on1` [Compound 31, (R)-3-((5-chloro-1H-indol-2-yl)methyl)-1-methyl-1-(1-(3-methylisoxazole-5-carbonyl)piperidin-3-yl)urea] as the molecule, how does the pIC50 read?
Answer: 5.83

Question: `CCC(=O)N1CCC[C@@H](N(C)C(=O)NCc2cc3cc(Cl)ccc3[nH]2)C1` [Compound 10, (R)-3-((5-chloro-1H-indol-2-yl)methyl)-1-methyl-1-(1-propionylpiperidin-3-yl)urea] was tested. Which pIC50 did it give?
Answer: 6.90

Question: `CCc1cc2[nH]c(CNC(=O)N(C)[C@@H]3CCCN(C(C)=O)C3)cc2cc1Cl` [Compound 152, (R)-1-(1-acetylpiperidin-3-yl)-3-((5-chloro-6-ethyl-1H-indol-2-yl)methyl)-1-methylurea] was tested. Which pIC50 did it give?
Answer: 6.77
